Laboratory results published in article PMC6792352, “Limited Chemical Structural Diversity Found to Modulate Thyroid Hormone Receptor in the Tox21 Chemical Library” (Environmental Health Perspectives, 2019).
Where a name gives a salt, the structure may show the parent alone.

Assay: in vitro
Details: rat, gh3-tre-luc cells, AC50 (uM) modified / 1000

SMILES | CC50 at 24 h [µM]
CC(=O)OC[C@H]1O[C@@](COC(C)=O)(O[C@H]2O[C@H](COC(C)=O)[C@@H](OC(C)=O)[C@H](OC(C)=O)[C@H]2OC(C)=O)[C@@H](OC(C)=O)[C@@H]1OC(C)=O [Sucrose octaacetate] | > 70
CCCCC/C=C\C/C=C\C/C=C\CCCCC(=O)O [Gamolenic acid] | > 50
CCCCN(CCO)CCCC [2-(Dibutylamino)ethanol] | > 90
O=C(CCCN1CCC(C(=O)c2ccc(F)cc2)CC1)c1ccc(F)cc1 [Lenperone] | > 50
CCC(C)O (stereo not drawn) [2-Butanol] | > 90
CC(=O)OC(C)OC(C)=O [1,1-Ethanediol diacetate] | > 90
COc1cc(S(=O)(=O)Nc2ccccc2)c(OC)cc1N [4-Amino-2,5-dimethoxy-N-phenylbenzenesulfonamide] | > 90
COc1nc(C)nc(NC(=O)NS(=O)(=O)c2ccccc2Cl)n1 [Chlorsulfuron] | > 90
C1COCCN1 [Morpholine] | > 100
O=C(O)c1ccc(C(=O)O)cc1 [Terephthalic acid] | > 90
COc1ccc(CCNCC(O)COc2cccc(C)c2)cc1OC (stereo not drawn) [Bevantolol hydrochloride] | 20.6
O=C(O)Cc1cccc(-c2cc(CCCCCCc3ccc(O[C@H]4O[C@H](CO)[C@@H](O)[C@H](O)[C@@H]4O)c(-c4cccc(CC(=O)O)c4)c3)ccc2O[C@H]2O[C@H](CO)[C@@H](O)[C@H](O)[C@@H]2O)c1 [Bimosiamose] | > 50
CCCC[N+](=O)[O-] [1-Nitrobutane] | > 90
CC(C)(CO)[C@@H](O)C(=O)NCCCO [Dexpanthenol] | > 50
C/C=C(\C)C=O [2-Methyl-2-butenal] | > 90
CCCC1([C@H](O)C/C=C/[C@H]2[C@H](O)CC(=O)[C@@H]2CCCCCCC(=O)OC)CCC1 [(R)-Butaprost] | 32.9
CC1=NNC(=O)N(/N=C/c2cccnc2)C1 [Pymetrozine] | > 90
COC=O [Methyl formate] | > 8
NC(=O)OCC(O)COc1ccc(Cl)cc1 (stereo not drawn) [Chlorphenesin carbamate] | > 20
Cc1[nH]c(=O)c(C#N)cc1-c1ccc2nccn2c1 [Olprinone hydrochloride] | > 50
O=C(Nc1ccc(C(=O)O)c(O)c1)c1ccccc1 [Benzoylpas] | > 50
O=C(O)Cc1csc(-c2ccc(Cl)cc2)n1 [Fenclozic acid] | > 50

SMILES | CC50 at 24 h [µM]
CNc1ncnc2nc[nH]c12 [(N-6)-Methyladenine] | > 90
O[C@@H]([C@H](O)[C@H](O)CBr)[C@H](O)CBr [Dibromomannitol] | > 90
CCOc1ccc(NC(C)=O)cc1 [Phenacetin] | > 50
O=C(OC[C@H]1O[C@](O)(COC(=O)c2cccnc2)[C@@H](OC(=O)c2cccnc2)[C@@H]1OC(=O)c1cccnc1)c1cccnc1 [Nicofuranose] | > 50
O=C(c1ccc(Cl)cc1)c1ccc(Cl)cc1 [4,4'-Dichlorobenzophenone] | > 90
CC(C)=CCC1C(=O)N(c2ccccc2)N(c2ccccc2)C1=O [Feprazone] | 48.7
COc1ccc(C[C@H](C)NC[C@@H](O)c2ccc(O)c(NC=O)c2)cc1 [Formoterol hemifumarate dihydrate] | > 50
CC(C)CN(C[C@@H](OP(=O)(O)O)[C@H](Cc1ccccc1)NC(=O)O[C@H]1CCOC1)S(=O)(=O)c1ccc(N)cc1 [Fosamprenavir calcium] | > 50
COc1ccc2c(c1)OC(C)(C)C(c1ccccc1)C2c1ccc(OCCN2CCCC2)cc1 (stereo not drawn) [Ormeloxifene] | 6.42
N#CCCOCCOCCC#N [3,3'-(Ethylenedioxy)dipropiononitrile] | > 90
CC(=O)Nc1cc(S(=O)(=O)O)cc2cc(S(=O)(=O)O)c(N=Nc3ccccc3)c(O)c12 [C.I. Acid Red 1] | 53.1
O=P(O)(O)OC(Cn1cncn1)(Cn1cncn1)c1ccc(F)cc1F [Fosfluconazole] | > 50
Cc1cc2nc3c(=O)[nH]c(=O)nc-3n(C[C@H](O)[C@H](O)[C@H](O)COP(=O)(O)OP(=O)(O)OC[C@H]3O[C@@H](n4cnc5c(N)ncnc54)[C@H](O)[C@@H]3O)c2cc1C [Flavin adenine dinucleotide disodium] | > 50
CCOCCOCCO [2-(2-Ethoxyethoxy)ethanol] | > 90
CC(NC(C)(C)C)C(=O)c1cccc(Cl)c1 (stereo not drawn) [Bupropion hydrochloride] | > 50
CCCCCCCCCCCCCCBr [1-Bromotetradecane] | > 100
CO[C@H]1C[C@@H]2CC[C@@H](C)[C@@](O)(O2)C(=O)C(=O)N2CCCC[C@H]2C(=O)O[C@H]([C@H](C)C[C@@H]2CC[C@@H](OCCO)[C@H](OC)C2)CC(=O)[C@H](C)/C=C(\C)[C@@H](O)[C@@H](OC)C(=O)[C@H](C)C[C@H](C)/C=C/C=C/C=C/1C [Everolimus] | 0.00998
CN(C/C=C/C#CC(C)(C)C)Cc1cccc2ccccc12 [Terbinafine] | 38.3
CCCCCCCCCCCCN(C)C [N,N-Dimethyldodecan-1-amine] | > 90
O=C1c2ccccc2C(=O)C1c1nc2ccccc2c(Br)c1O [C.I. Disperse Yellow 64] | > 90
CCCCN(CCCC)CC(O)c1cc(Cl)cc2c1-c1ccc(Cl)cc1/C2=C/c1ccc(Cl)cc1 (stereo not drawn) [Lumefantrine] | 38.5
O=S(=O)(c1ccc(Cl)cc1)c1cc(Cl)c(Cl)cc1Cl [Tetradifon] | 60.5

SMILES | CC50 at 24 h [µM]
C=CC(=O)OCCCCOC(=O)C=C [1,4-Butanediol diacrylate] | 17.5
CC1(C)C2C(=O)CCC(C)(C)[C@]23CC[C@H]1C3 (stereo partly drawn) [Isolongifolanone] | > 90
Cc1ccc(NC=O)c(C)c1 [N-(2,4-Dimethylphenyl)formamide] | > 90
CN1CCN(CCCN2c3ccccc3Sc3ccc(Cl)cc32)CC1 [Prochlorperazine dimaleate] | 5.73
O=C(OCC(COC(=O)c1cccnc1)(COC(=O)c1cccnc1)COC(=O)c1cccnc1)c1cccnc1 [Niceritrol] | > 50
O=C(c1ccccc1)c1ccccc1 [Benzophenone] | > 50
CCCCNC(=S)NCCCC [N,N'-Dibutylthiourea] | > 90
COc1ccccc1N [2-Methoxyaniline hydrochloride] | > 90
CCCCC(CC)(CO)CO [2-Butyl-2-ethyl-1,3-propanediol] | > 90
COc1ccc([C@@H]2CC(=O)c3c(O)cc(O[C@@H]4O[C@H](CO[C@@H]5O[C@@H](C)[C@H](O)[C@@H](O)[C@H]5O)[C@@H](O)[C@H](O)[C@H]4O)cc3O2)cc1O [Hesperidin] | > 20
Cc1nc2ccc(CN(C)c3ccc(C(=O)N[C@@H](CCC(=O)O)C(=O)O)s3)cc2c(=O)[nH]1 [Raltitrexed] | > 50
COc1ccc2c(c1)N(C[C@H](C)CN(C)C)c1ccccc1S2 [Methotrimeprazine maleate] | 6.79
O=C(O)c1ccc(S(=O)(=O)N(Cl)Cl)cc1 [Halazone] | > 90
O=S(=O)(O)c1ccc(O)cc1 [Sodium 4-hydroxybenzenesulfonate] | > 90
CCCN [Propylammonium nitrate] | > 90
CC(C)C(O)C(C)(C)CO (stereo not drawn) [2,2,4-Trimethyl-1,3-pentanediol] | > 90
CCOC(=O)c1cnc2cc(OCC(C)C)c(OCC(C)C)cc2c1O [Buquinolate] | > 50
C=N[C@@H](C(=O)N[C@@H]1C(=O)N2[C@@H]1SC(C)(C)[C@@H]2C(=O)O)c1ccccc1 [Metampicillin sodium] | > 50
NS(=O)(=O)Cc1noc2ccccc12 [Zonisamide] | > 50
CCC(C)(C)OC [tert-Amyl methyl ether] | > 90
CC[C@H]1C[C@@H]2C[C@H]3c4[nH]c5ccc(OC)cc5c4CCN(C2)[C@@H]13 [Ibogaine hydrochloride] | 62.4
Cc1cc(C)cc(OCC2CNC(=O)O2)c1 (stereo not drawn) [Metaxalone] | > 50

Same assay, conditions: rat, gh3-tre-luc cells, AC50 (uM) modified / 1000, Tox21_110001=Tox21_111794; viability, 1 nM T3 present, 24 h

SMILES | CC50 at 24 h [µM]
CC(Cc1ccccc1)NC=O (stereo not drawn) [Formetorex] | > 50

Same assay, conditions: rat, gh3-tre-luc cells, AC50 (uM) modified / 1000, Tox21_110001=Tox21_112065; viability, 1 nM T3 present, 24 h

SMILES | CC50 at 24 h [µM]
CO[C@@H]1[C@H](O)C[C@@H](O[C@@H]2C[C@H](Oc3cc4cc5c(c(O)c4c(O)c3C)C(=O)[C@@H](O[C@H]3C[C@@H](O[C@H]4C[C@@H](O[C@H]6C[C@](C)(O)[C@@H](OC(C)=O)[C@H](C)O6)[C@H](O)[C@@H](C)O4)[C@H](O)[C@@H](C)O3)[C@H]([C@H](OC)C(=O)[C@@H](O)[C@@H](C)O)C5)O[C@H](C)[C@@H]2OC(C)=O)O[C@@H]1C [Chromomycin A3] | 0.366

Same assay, conditions: rat, gh3-tre-luc cells, AC50 (uM) modified / 1000, Tox21_110001=Tox21_201145; viability, 1 nM T3 present, 24 h

SMILES | CC50 at 24 h [µM]
CC(C)OC(=O)Cc1ccccc1 [Isopropyl phenylacetate] | > 90

Same assay, conditions: rat, gh3-tre-luc cells, AC50 (uM) modified / 1000, Tox21_110001=Tox21_201153; viability, 1 nM T3 present, 24 h

SMILES | CC50 at 24 h [µM]
C[C@H]1CCCC(=O)CCC/C=C/c2cc(O)cc(O)c2C(=O)O1 [Zearalenone] | 41.1

Same assay, conditions: rat, gh3-tre-luc cells, AC50 (uM) modified / 1000, Tox21_110001=Tox21_201442; viability, 1 nM T3 present, 24 h

SMILES | CC50 at 24 h [µM]
O=[N+]([O-])c1ccccc1O [2-Nitrophenol] | > 90

Same assay, conditions: rat, gh3-tre-luc cells, AC50 (uM) modified / 1000, Tox21_110001=Tox21_201502; viability, 1 nM T3 present, 24 h

SMILES | CC50 at 24 h [µM]
CC(=O)C=Cc1ccccc1 [Methyl styryl ketone] | > 90

Same assay, conditions: rat, gh3-tre-luc cells, AC50 (uM) modified / 1000, Tox21_110001=Tox21_201525; viability, 1 nM T3 present, 24 h

SMILES | CC50 at 24 h [µM]
CSSC [Methyl disulfide] | > 90

Same assay, conditions: rat, gh3-tre-luc cells, AC50 (uM) modified / 1000, Tox21_110001=Tox21_303381; viability, 1 nM T3 present, 24 h

SMILES | CC50 at 24 h [µM]
CCC(=O)c1ccc(Cl)cc1 [Ethyl 4-chlorophenyl ketone] | > 90

Same assay, conditions: rat, gh3-tre-luc cells, AC50 (uM) modified / 1000, Tox21_110001=Tox21_303510; viability, 1 nM T3 present, 24 h

SMILES | CC50 at 24 h [µM]
C[C@H]1CCCC(=O)CCC/C=C/c2cc(O)cc(O)c2C(=O)O1 [Zearalenone] | 23.5
